Where a name gives a salt, the structure may show the parent alone.
Assays:
[1] = Polymorphism screen of hydrochloride and benzoate salts: thermal cycling, evaporation, antisolvent addition, cooling (XRPD); format: physicochemical; conditions: solvent per experiment: -01 1,4-Dioxane, -02 1-Propanol, -03 2-Butanol, -05 2-Methyltetrahydrofuran, -06 2-Propanol, -07 Acetone, -08 Acetonitrile, -09 Anisole, -10 Chlorobenzene, -11 Ethanol, -12 Ethyl acetate, -13 Isopropyl acetate, -14 Methanol, -15 Propyl acetate, -16 Methylethyl ketone; for XRPD Result / 3-day Observations: hydrochloride salt, three days; for XRPD Result: solid isolated after thermal cycle between ambient and 40° C., -20 iso-Prop; for 3-day Observations: thermally cycled between ambient and 40° C., -17 Forma; for 3-day Observations / Initial Observations: -04 2-Ethoxyethanol; for Initial Observations: thermal cycle of lyophilised hydrochloride salt (~40 mg), solvent added, -17 Formamide
Method: Twenty five of the lyophilised samples were treated with solvent and thermally cycled between ambient and 40° C. with four hours spent under each condition. After three days and solids were isolated by centrifuge filtration and analysed by XRPD.
(§1) Twelve samples of the lyophilised material were treated with a minimal volume (ca 0.5 ml) of warm solvent, syringe filtered through a 0.22 µm filter and added to a clean HPLC vial and allowed to evaporate at RT. The solvents used and XRPD results following evaporation are detailed in the Table below:
as §1, with “micrometre” for “µm”
For antisolvent additions thirteen samples of the lyophilised material were dissolved in a small amount of hot solvent (^˜0.5 ml). […] A large excess of antisolvent was then added, the vials sealed. After storage at RT overnight, and samples where no solid had been produced were first cooled to 4° C. for ˜24 hrs, and again if no solid was produced, they were cooled to −18° C. Any solids were isolated by centrifuge filtration and analysed by XRPD.
For the cooling experiments twelve samples of the lyophilised material were dissolved in a small amount of hot solvent (^˜[…]) and syringe filtered through a 0.22 μm filter into a clean HPLC vial. Samples were allowed to cool to RT, and if no solid was produced to 4° C. and then to −18° C. Solids were isolated by centrifuge filtration and analysed by XRPD.

[2] = Thermo-Gravimetric Analysis (TGA), thermal stability; conditions: 10° C./min; for thermal stability up to (TGA): nitrogen
Method: Thermo—Gravimetric Analysis (TGA)
TGA thermograms were obtained with a TA Instrument Discovery 550 in Al pans. The heating rate used was 10° C./min linear ramp from 25 to 400° C. with a nitrogen purging at a rate of 60 ml/min. TGA thermograms were analysed using TRIOS software.

[3] = Dynamic Vapor Sorption (DVS), salt screen and scale-up salts; format: physicochemical; conditions: 25° C.
Method: Dynamic Vapor Sorption (DVS)
DVS analyses were performed on TA Instrument DVS Q5000. Samples were added to a pre-tared metallised quartz crucible and run at 25° C. from 40% RH to 90% RH, down to zero and back to 40%. This cycle was repeated in increments of 10% RH.

[4] = listed as DJP2202-007-01, hydrochloride
[5] = listed as DJP2202-007-14, hydrochloride

| SMILES | XRPD Result [1] | 3-day Observations [1] | Initial Observations [1] | other results |
| --- | --- | --- | --- | --- |
| COc1ccc2[nH]cc(CCN(C)C)c2c1.Cl [DJP2202-007-02] | Pattern 1 | few crystals | no change |  |
| COc1ccc2[nH]cc(CCN(C)C)c2c1.Cl [DJP2202-007-03] | Pattern 1 | few crystals | no change |  |
| COc1ccc2[nH]cc(CCN(C)C)c2c1.Cl [DJP2202-007-04] |  | clear solution | dissolved |  |
| COc1ccc2[nH]cc(CCN(C)C)c2c1.Cl [DJP2202-007-05] | Pattern 1 | few crystals | no change |  |
| COc1ccc2[nH]cc(CCN(C)C)c2c1.Cl [DJP2202-007-06] | Pattern 1 | few crystals | no change |  |
| COc1ccc2[nH]cc(CCN(C)C)c2c1.Cl [DJP2202-007-07] | Pattern 1 | few crystals | no change |  |
| COc1ccc2[nH]cc(CCN(C)C)c2c1.Cl [DJP2202-007-08] | Pattern 1 |  | no change |  |
| COc1ccc2[nH]cc(CCN(C)C)c2c1.Cl [DJP2202-007-09] | Pattern 1 |  | no change |  |
| COc1ccc2[nH]cc(CCN(C)C)c2c1.Cl [DJP2202-007-10] | Pattern 1 | white solid | no change |  |
| COc1ccc2[nH]cc(CCN(C)C)c2c1.Cl [DJP2202-007-11] | Pattern 1 | white solid | no change |  |
| COc1ccc2[nH]cc(CCN(C)C)c2c1.Cl [DJP2202-007-12] | Pattern 1 | white solid | no change |  |
| COc1ccc2[nH]cc(CCN(C)C)c2c1.Cl [DJP2202-007-13] | Pattern 1 | white solid | no change |  |
| COc1ccc2[nH]cc(CCN(C)C)c2c1.Cl [DJP2202-007-15] | Pattern 1 |  | no change |  |
| COc1ccc2[nH]cc(CCN(C)C)c2c1.Cl [DJP2202-007-16] | Pattern 2 | white crystals | no change |  |
| COc1ccc2[nH]cc(CCN(C)C)c2c1.Cl [DJP2202-007-17] |  | few crystals | dissolved |  |
| COc1ccc2[nH]cc(CCN(C)C)c2c1.Cl [DJP2202-007-18] |  | clear solution | dissolved |  |

| SMILES | XRPD Result [1] | 3-day Observations [1] | Initial Observations [1] | other results |
| --- | --- | --- | --- | --- |
| COc1ccc2[nH]cc(CCN(C)C)c2c1.Cl [DJP2202-007-19] |  | clear solution | no change |  |
| COc1ccc2[nH]cc(CCN(C)C)c2c1.Cl [DJP2202-007-20] | Pattern 1 | few crystals | no change |  |
| COc1ccc2[nH]cc(CCN(C)C)c2c1.Cl [DJP2202-007-21] | Pattern 1 | few crystals | no change |  |
| COc1ccc2[nH]cc(CCN(C)C)c2c1.Cl [DJP2202-007-22] | Pattern 1 | few crystals | no change |  |
| COc1ccc2[nH]cc(CCN(C)C)c2c1.Cl [DJP2202-007-23] |  | clear solution | dissolved |  |
| COc1ccc2[nH]cc(CCN(C)C)c2c1.Cl [DJP2202-007-24] |  | clear solution | dissolved |  |
| COc1ccc2[nH]cc(CCN(C)C)c2c1.Cl [DJP2202-007-25] |  | clear solution | dissolved |  |
| COc1ccc2[nH]cc(CCN(C)C)c2c1.Cl [Hydrochloride pattern 2, 5-MeO-DMT hydrochloride] |  |  |  | start of decomposition / complete mass loss (TGA) ([2]; hydrochloride): around 256 °C; XRPD Result [1, 4]: Pattern 2; 3-day Observations [1, 4]: solid mass; Initial Observations [1, 4]: no change |
| COc1ccc2[nH]cc(CCN(C)C)c2c1.Cl [Hydrochloride pattern 3, 5-MeO-DMT hydrochloride] |  |  |  | start of decomposition / complete mass loss (TGA) ([2]; hydrochloride): around 260 °C; XRPD Result [1, 5]: Pattern 3; 3-day Observations [1, 5]: clear solution; Initial Observations [1, 5]: dissolved |
| COc1ccc2[nH]cc(CCN(C)C)c2c1 [Ketoglutarate salt, 5-MeO-DMT ketoglutarate] |  |  |  | water uptake at 40% RH ([3]; first sorption isotherm): 0.13 % w/w; deliquescence during DVS ([3]; high RH): deliquesce at high RH |
| COc1ccc2[nH]cc(CCN(C)C)c2c1 [Saccharinate salt, 5-MeO-DMT saccharinate] |  |  |  | thermal stability up to (TGA) [2]: 200 °C |
| COc1ccc2[nH]cc(CCN(C)C)c2c1.O=C(O)c1ccccc1 [benzoate salt pattern 2, 5-MeO-DMT benzoate] |  |  |  | thermal stability up to (TGA) [2]: ~170 °C |
| COc1ccc2[nH]cc(CCN(C)C)c2c1.O=C(O)c1ccccc1 [benzoate salt pattern 3, 5-MeO-DMT benzoate] |  |  |  | start of decomposition / complete mass loss (TGA) [2]: approximately 190 °C |
| COc1ccc2[nH]cc(CCN(C)C)c2c1.O=C(O)c1ccccc1 [benzoate salt pattern 4, 5-MeO-DMT benzoate] |  |  |  | start of decomposition / complete mass loss (TGA) [2]: approximately 190 °C; thermal stability up to (TGA) [2]: approximately 190 °C |
| COc1ccc2[nH]cc(CCN(C)C)c2c1 [free base, 5-methoxy-N,N-dimethyltryptamine] |  |  |  | thermal stability up to (TGA) [2]: 150 °C |

Reference: patent US11773063B1, “Pharmaceutically acceptable salts and compositions thereof” (priority 2022, dated 2023)
